Experimental findings from patent US4576934A, “Antihypertensive dihydropyridine-5-phosphonic acid cyclic esters” (Nissan Chemical Industries Ltd., priority 1983, dated 1986) are described below.

The subject of data set [1] is taenia caecum of guinea pig. In words: Calcium antagonistic effects: relaxation of CaCl2-induced contraction of K+-depolarized taenia caecum. The note with it: Cavia porcellus, relative to maximum relaxation by 10^-4 M papaverine, 10 mM CaCl2, 37° C., read-out: pID50 (pID50 = -log [ID50]), concentration producing 50% relaxation (converted). The format is cell-based. The protocol: (1) Calcium antagonistic effects
Then, the preparation was depolarized by a K^+ rich solution (NaCl: 40 mM, KCl: 100 mM). After 10-20 minutes equilibration period, 10 mM of CaCl2 was added to the bathing solution. The contraction was produced, and then the test compound applied cumulatively.

Data set [2] deals with male spontaneously hypertensive rat (SHR). In words: Antihypertensive effects: systolic blood pressure after oral administration to SHR, tail cuff method. It counts as in vivo. As to conditions: read-out: Antihypertensive effects, Maximum decrease (%). The protocol: (2) Antihypertensive effects
After oral administration of the test compound dissolved in a H2 O-PEG 400 solvent mixture (H2 O:PEG 400 (w/w)=1:3) to the male spontaneously hypertensive rat (SHR), the systolic blood pressure was measured by a tail cuff method. Prior to the measurement, rats were warmed at 50° C. for five minutes.

Data set [3] can be described thus: Acute toxicity test (LD50) in mice. The note with it: mouse, in vivo, male ddY mice, after seven days. The protocol: Test 2: Acute toxicity test
ddY mice (.male., 4 weeks old) were divided into groups of five mice and the test compound dissolved in purified water was administered orally (5% solution) or intraperitoneally (1% solution) to the male ddY mice.
After seven days, LD50 values were calculated from the dead […] recorded in the individual dosage groups by the method of Litchfield-Wilcoxon.

Structures can show the parent of a compound that is named as a salt.

`CC1=C(C(=O)OCCN(C)Cc2ccccc2)C(c2cccc(Cl)c2)C(P2(=O)OCC(C)(C)CO2)=C(C)N1` (stereo not drawn) [Hydrochloride of Example 18]: the EC50 in data set [1] was 4.47 nM. The inhibition in vivo at 10 mg/kg in data set [2] turned out to be 17%.
`COC(=O)C1=C(C)NC(C)=C(P2(=O)OCCC(C)O2)C1c1ccccc1C(F)(F)F` (stereo not drawn) [Hydrochloride of Example 20]: in data set [1], the EC50 is 2.04 nM. In data set [2], the inhibition in vivo at 20 mg/kg was 32%.
The matching figures for `CC1=C(C(=O)OCCN(C)Cc2ccccc2)C(c2cccc([N+](=O)[O-])c2)C(P2(=O)OC(C)CCC(C)O2)=C(C)N1` (stereo not drawn) [Hydrochloride of Example 1]: 7.08 nM and 50%.
`CC1=C(C(=O)OCCN(C)Cc2ccccc2)C(c2ccccc2Cl)C(P2(=O)OCC(C)(C)CO2)=C(C)N1` (stereo not drawn) [Hydrochloride of Example 19]: the EC50 in data set [1] was 5.13 nM. Also, the inhibition in vivo at 10 mg/kg in data set [2] is 30%.
`COC(=O)C1=C(C)NC(C)=C(C(=O)OC)C1c1ccccc1[N+](=O)[O-]` [Nifedipine, reference compound]: the EC50 in data set [1] is 2.88 nM. In data set [2], the inhibition in vivo at 10 mg/kg amounted to 26%.
The matching figures for `CC1=C(C(=O)OCCN2CCN(C(c3ccccc3)c3ccccc3)CC2)C(c2ccccc2Cl)C(P2(=O)OC(C)CC(C)O2)=C(C)N1` (stereo not drawn) [Hydrochloride of Example 11]: 24.5 nM and 29%.
For `COC(=O)C1=C(C)NC(C)=C(C(=O)OCCN(C)Cc2ccccc2)C1c1cccc([N+](=O)[O-])c1` (stereo not drawn) [Nicardipine, reference compound], in data set [1], the EC50 is 0.417 nM. Also, the inhibition in vivo at 20 mg/kg in data set [2] was found to be 34%. Further, the LD50 at 168 h is 166 mg/kg in data set [3] (ip, i.p. (1% solution)) and 561 mg/kg in data set [3] (po, p.o. (5% solution)).
With `CC1=C(C(=O)OCCN(C)Cc2ccccc2)C(c2ccccc2C(F)(F)F)C(P2(=O)OCCC(C)O2)=C(C)N1` (stereo not drawn) [Hydrochloride of Example 13], the EC50 in data set [1] is 12.3 nM. For the same compound, in data set [2], the inhibition in vivo at 10 mg/kg was 39%.
For `CC1=C(C(=O)OCCN(C)Cc2ccccc2)C(c2cccc([N+](=O)[O-])c2)C(P2(=O)OCCC(C)O2)=C(C)N1` (stereo not drawn) [Hydrochloride of Example 12] the same measures were 2.57 nM and 18%.
With `CC1=C(C(=O)OCCN(C)Cc2ccccc2)C(c2cccc([N+](=O)[O-])c2)C(P2(=O)OC(C)CC(C)O2)=C(C)N1` (stereo not drawn) [Hydrochloride of Example 5], the EC50 in data set [1] was 2.45 nM. In addition, the inhibition in vivo at 20 mg/kg in data set [2] was determined as 50%.
For `CC1=C(C(=O)OCCN(C)Cc2ccccc2)C(c2ccccc2C(F)(F)F)C(P2(=O)OCC(C)(C)CO2)=C(C)N1` (stereo not drawn) [Hydrochloride of Example 17] the same measures were 4.27 nM and 42%.
`CC1=C(C(=O)OCCN(C)Cc2ccccc2)C(c2cccc([N+](=O)[O-])c2)C(P2(=O)OCC(C)(C)CO2)=C(C)N1` (stereo not drawn) [Hydrochloride of Example 16]: the EC50 in data set [1] was 3.55 nM. Further, the inhibition in vivo at 10 mg/kg in data set [2] was 21%.
As for `COc1ccc([C@@H]2Sc3ccccc3N(CCN(C)C)C(=O)[C@@H]2OC(C)=O)cc1` [Diltiazem, reference compound], the EC50 in data set [1] was 275 nM. Moreover, the inhibition in vivo at 60 mg/kg in data set [2] (dose 60 mg/kg) was found to be 10%.
As for `CC1=C(C(=O)OCCN2CCN(C(c3ccccc3)c3ccccc3)CC2)C(c2cccc([N+](=O)[O-])c2)C(P2(=O)OC(C)CC(C)O2)=C(C)N1` (stereo not drawn) [Hydrochloride of Example 9], the EC50 in data set [1] was 29.5 nM. In addition, the inhibition in vivo at 20 mg/kg in data set [2] was 36%.
For the compound `CC1=C(C(=O)OCCN(C)Cc2ccccc2)C(c2ccccc2C(F)(F)F)C(P2(=O)OC(C)CCC(C)O2)=C(C)N1` (stereo not drawn) [Hydrochloride of Example 2], the EC50 in data set [1] was 5.89 nM. Also, the inhibition in vivo at 20 mg/kg in data set [2] is 45%.
As to `CC1=C(C(=O)OCCN(C)Cc2ccccc2)C(c2ccccc2C(F)(F)F)C(P2(=O)OC(C)CC(C)O2)=C(C)N1` (stereo not drawn) [Hydrochloride of Example 6], the EC50 in data set [1] was 4.47 nM. Moreover, the inhibition in vivo at 5 mg/kg in data set [2] (dose 5 mg/kg) was 37%. Besides, the LD50 at 168 h in data set [3] (ip, i.p. (1% solution)) was 17 mg/kg; in data set [3] (po, p.o. (5% solution)), 53 mg/kg.
As for `CC1=C(C(=O)OCCN(C)Cc2ccccc2)C(c2cccc(Cl)c2)C(P2(=O)OC(C)CCC(C)O2)=C(C)N1` (stereo not drawn) [Hydrochloride of Example 3], the EC50 in data set [1] is 3.98 nM. In data set [2], the inhibition in vivo at 10 mg/kg was found to be 15%.
For `CC1=C(C(=O)OCCN(C)Cc2ccccc2)C(c2ccccc2Cl)C(P2(=O)OC(C)CC(C)O2)=C(C)N1` (stereo not drawn) [Hydrochloride of Example 8] the same measures were 2.82 nM and 47%.
Turning to `CC1=C(C(=O)OCCN2CCN(C(c3ccccc3)c3ccccc3)CC2)C(c2ccccc2C(F)(F)F)C(P2(=O)OC(C)CC(C)O2)=C(C)N1` (stereo not drawn) [Hydrochloride of Example 10], the EC50 in data set [1] was 57.5 nM. For the same compound, in data set [2], the inhibition in vivo at 20 mg/kg was found to be 46%.
The matching figures for `COC(=O)C1=C(C)NC(C)=C(P2(=O)OC(C)CC(C)O2)C1c1ccccc1C(F)(F)F` (stereo not drawn) [Hydrochloride of Example 21]: 1.91 nM and 35%.
Consider `CC1=C(C(=O)OCCN(C)Cc2ccccc2)C(c2ccccc2Cl)C(P2(=O)OC(C)CCC(C)O2)=C(C)N1` (stereo not drawn) [Hydrochloride of Example 4], for which the EC50 in data set [1] is 4.9 nM. In data set [2], the inhibition in vivo at 10 mg/kg was 15%.
Regarding `CC1=C(C(=O)OCCN(C)Cc2ccccc2)C(c2cccc(Cl)c2)C(P2(=O)OCCC(C)O2)=C(C)N1` (stereo not drawn) [Hydrochloride of Example 14], the EC50 in data set [1] is 3.02 nM. Moreover, the inhibition in vivo at 10 mg/kg in data set [2] worked out at 14%.
In the case of `CC1=C(C(=O)OCCN(C)Cc2ccccc2)C(c2cccc(Cl)c2)C(P2(=O)OC(C)CC(C)O2)=C(C)N1` (stereo not drawn) [Hydrochloride of Example 7], the EC50 in data set [1] was 5.5 nM. Further, the inhibition in vivo at 20 mg/kg in data set [2] came to 49%. The LD50 at 168 h in data set [3] (ip, i.p. (1% solution)) was determined as 23 mg/kg; in data set [3] (po, p.o. (5% solution)), 74 mg/kg.
As for `CC1=C(C(=O)OCCN(C)Cc2ccccc2)C(c2ccccc2Cl)C(P2(=O)OCCC(C)O2)=C(C)N1` (stereo not drawn) [Hydrochloride of Example 15], the EC50 in data set [1] is 3.24 nM. Further, the inhibition in vivo at 10 mg/kg in data set [2] came out at 38%.

The term LD50 denotes the dose at which mortality reaches 50%.
